According to paper PMC3020970, “K70Q Adds High-Level Tenofovir Resistance to “Q151M Complex” HIV Reverse Transcriptase through the Enhanced Discrimination Mechanism” (PLoS ONE, 2011):
Structures can show the parent of a compound that is named as a salt.

Key:
Format in all cases: cell-based
HIV-1 NL4-3 strain (WT) = experiment: microbe, parasite or virus in culture; settings: Human immunodeficiency virus 1, NL43; WT, MAGIC-5 cells, Table S1; read-out: EC50
Method: (§1) Susceptibilities to various RT inhibitors were determined using the MAGIC-5 cells which are HeLa cells stably transfected with a β-galactosidase gene under the control of an HIV long terminal repeat promoter, and with vectors that express the CD4 receptor and the CCR5 co-receptor under the control of the CMV promoter as described previously. Briefly, MAGIC-5 cells were infected with diluted virus stock (100 blue forming units) in the presence of increasing concentrations of RT inhibitors, cultured for 48 h, fixed, and stained with X-Gal (5-bromo-4-chloro-3-indolyl-β-D-galacto-pyranoside). The stained cells were counted under a light microscope.

[1] = system: HIV-1 clinical isolate 2 (Q151Mc + K70Q); experiment: Single-cycle drug susceptibility assay (MAGIC-5 cells), clinical isolate 2; settings: Human immunodeficiency virus 1; clinical isolate 2, MAGIC-5 cells
Method: (§2) HIV was isolated from fresh plasma immediately after collection of clinical samples from study participants at the outpatient clinic of the AIDS Clinical Center (ACC), International Medical Center of Japan. The Institutional Review Board approved this study (IMCJ-H13-80) and a written consent was obtained from all participants.
as §1

[2] = system: HIV-1 clinical isolate 1 (Q151Mc-containing); experiment: Single-cycle drug susceptibility assay (MAGIC-5 cells), clinical isolate 1; settings: Human immunodeficiency virus 1; clinical isolate 1, MAGIC-5 cells
Method: as §2, §1

HIV-1 Q151Mc/K70E = experiment: Single-cycle drug susceptibility assay (MAGIC-5 cells)
Method: (§3) The NL4-3-based molecular clone was constructed by replacing the pol-coding region with the HIV-1 BH10 strain. […] Each molecular clone was transfected into COS-7 cells. Cells were grown for 48 h, and culture supernatants were harvested and stored at −80°C until use.
as §1

HIV-1 Q151Mc = experiment: as above; settings: Human immunodeficiency virus 1, MAGIC-5
Method: as §3, §1

HIV-1 K70R = experiment: as above
Method: as §3, §1

HIV-1 Q151Mc/K70G = experiment: as above
Method: as §3, §1

HIV-1 Q151Mc/K70T = experiment: as above
Method: as §3, §1

HIV-1 K70E = experiment: as above
Method: as §3, §1

HIV-1 K70T = experiment: as above
Method: as §3, §1

HIV-1 Q151Mc/K70N = experiment: as above
Method: as §3, §1

HIV-1 K70N = experiment: as above
Method: as §3, §1

HIV-1 Q151Mc/K70Q = experiment: as above
Method: as §3, §1

HIV-1 K70Q = experiment: as above; settings: Human immunodeficiency virus 1, MAGIC-5; K70Q
Method: as §3, §1

HIV-1 K70G = experiment: as above
Method: as §3, §1

HIV-1 Q151Mc/K70R = experiment: as above
Method: as §3, §1

HIV-1 WT = experiment: Single-cycle drug susceptibility assay (MAGIC-5 cells), recombinant WT clone; settings: Human immunodeficiency virus 1, Table S2
Method: as §3, §1

Compound: Cc1ccnc2c1NC(=O)c1cccnc1N2C1CC1 [NVP, nevirapine]
- EC50 (HIV-1 NL4-3 strain (WT)): 0.05 ± 0.004 µM
- EC50 [1]: > 10 µM
- EC50 [2]: > 10 µM

Compound: CC(C)OC(=O)OCOP(=O)(CO[C@H](C)Cn1cnc2c(N)ncnc21)OCOC(=O)OC(C)C [TFV-DF, tenofovir disoproxil fumarate]
- EC50 (HIV-1 Q151Mc/K70E; Human immunodeficiency virus 1, MAGIC-5, Q151Mc/K70E): 0.03 ± 0.001 µM
- Fold increase in EC50 compared to HIV-1 Q151Mc (HIV-1 Q151Mc/K70E; Q151Mc/K70E vs Q151Mc): (0.8) fold
- EC50 (HIV-1 Q151Mc): 0.04 ± 0.003 µM
- EC50 (HIV-1 K70R; Human immunodeficiency virus 1, MAGIC-5, K70R): 0.02 ± 0.002 µM
- Fold increase in EC50 compared to HIV-1 WT (HIV-1 K70R; K70R vs WT): (1) fold
- EC50 (HIV-1 Q151Mc/K70G; Human immunodeficiency virus 1, MAGIC-5, Q151Mc/K70G): 0.04 ± 0.002 µM
- Fold increase in EC50 compared to HIV-1 Q151Mc (HIV-1 Q151Mc/K70G; Q151Mc/K70G vs Q151Mc): (1) fold
- EC50 (HIV-1 Q151Mc/K70T; Human immunodeficiency virus 1, MAGIC-5, Q151Mc/K70T): 0.05 ± 0.001 µM
- Fold increase in EC50 compared to HIV-1 Q151Mc (HIV-1 Q151Mc/K70T; Q151Mc/K70T vs Q151Mc): (1.3) fold
- EC50 (HIV-1 K70E; Human immunodeficiency virus 1, MAGIC-5, K70E): 0.02 ± 0.003 µM
- Fold increase in EC50 compared to HIV-1 WT (HIV-1 K70E; K70E vs WT): (1) fold
- EC50 (HIV-1 K70T; Human immunodeficiency virus 1, MAGIC-5, K70T): 0.02 ± 0.003 µM
- Fold increase in EC50 compared to HIV-1 WT (HIV-1 K70T; K70T vs WT): (1) fold
- EC50 (HIV-1 Q151Mc/K70N; Human immunodeficiency virus 1, MAGIC-5, Q151Mc/K70N): 0.06 ± 0.004 µM
- Fold increase in EC50 compared to HIV-1 Q151Mc (HIV-1 Q151Mc/K70N; Q151Mc/K70N vs Q151Mc): (1.5) fold
- EC50 (HIV-1 K70N; Human immunodeficiency virus 1, MAGIC-5, K70N): 0.02 ± 0.003 µM
- Fold increase in EC50 compared to HIV-1 WT (HIV-1 K70N; K70N vs WT): (1) fold
- EC50 (HIV-1 Q151Mc/K70Q; Human immunodeficiency virus 1, MAGIC-5, Q151Mc/K70Q): 0.2 ± 0.01 µM
- Resistance (fold less susceptible than WT HIV-1) (HIV-1 Q151Mc/K70Q; K70Q/Q151Mc vs WT HIV-1): 10 fold
- EC50 (HIV-1 K70Q): 0.03 ± 0.003 µM
- EC50 (HIV-1 K70G; Human immunodeficiency virus 1, MAGIC-5, K70G): 0.02 ± 0.003 µM
- Fold increase in EC50 compared to HIV-1 WT (HIV-1 K70G; K70G vs WT): (1) fold
- EC50 (HIV-1 Q151Mc/K70R; Human immunodeficiency virus 1, MAGIC-5, Q151Mc/K70R): 0.03 ± 0.002 µM
- Fold increase in EC50 compared to HIV-1 Q151Mc (HIV-1 Q151Mc/K70R; Q151Mc/K70R vs Q151Mc): (0.8) fold
- EC50 (HIV-1 NL4-3 strain (WT)): 0.02 ± 0.003 µM
- EC50 [1]: 0.12 ± 0.02 µM
- EC50 [2]: 0.04 ± 0.01 µM
- EC50 (HIV-1 WT): 0.02 ± 0.004 µM
